Laboratory results reported in patent publication US20130210057A1, “USE OF LABEL-FREE BIOSENSORS TO UNDERSTAND AND IDENTIFY TREATMENT FOR CANCER” (CORNING INCORPORATED, priority 2012, published 2013).
Ends that are not written are not given here.

How the values were obtained:
Assay type in all cases: cell-based, human
[1] = system: Akt, ERK1/2, EGFR, c-Src, STAT3 phosphorylation in HCT116 parental cells; test: Western blot analysis of key signaling proteins in GPCR signaling; details: serum-starved, 5 min treatment; for Akt activation (phospho-Akt): SFLLR, SLIGKV 1 μM, S1P, LPA 2.5 μM
[2] = system: Akt, ERK1/2, EGFR, c-Src, STAT3 phosphorylation in PTEN null cells; test: as above; details: serum-starved, 5 min treatment; for Akt activation (phospho-Akt): SFLLR, SLIGKV 1 μM, S1P, LPA 2.5 μM
HCT116 PTEN null cells = test: Calcium flux assay (FLUO-4, FDSS/FLIPR); details: small molecule agonists 10 micromolar, peptide and lipid agonists 1 micromolar
Description: (§1) To screen endogenous receptors and their coupled signaling pathways, we first assembled a GPCR agonist focused library (Table 1). The library consists of 120 GPCR agonists covering over 150 known GPCRs, based on their known pharmacology including polypharmacology. For small molecule chemical agonists, the dose used was 10 micromolar. For peptide agonists, the dose used was 1 micromolar. For lipid agonists, the dose used was also 1 micromolar. For both peptides and lipids, these agonists were suspended in a solution containing 0.05% bovine […] to increase their stability.

HCT116 parental cells = test: Calcium flux assay (FLUO-4, FDSS/FLIPR); details: small molecule agonists 10 micromolar, peptide and lipid agonists 1 micromolar
Description: as §1

[3] = system: HCT116 parental cell line; test: Label-free RWG biosensor DMR assay; details: HCT116 parental
Description: (§2) EPIC® beta version wavelength interrogation system (Corning Inc., NY) was used for whole cell sensing. This system consists of a temperature-control unit, an optical detection unit, and an on-board liquid handling unit with robotics. The detection unit is centered on integrated fiber optics, and enables kinetic measures of cellular responses with a time interval of ˜15 sec. Also EPIC® commercial systems were used, with a liquid handler accessory attached to EPIC® reader system. Also, an Epic® RWG imager can be used.
(§3) The resonant waveguide grating (RWG) biosensor is capable of detecting minute changes in local index of refraction near the sensor surface and the waveguide thin film having gratings provide a cell culture surface. Since the local index of refraction within a cell is a function of density and its distribution of biomass (e.g., proteins, molecular complexes), the biosensor exploits its evanescent wave to non-invasively detect ligand-induced Dynamic Mass Redistribution (DMR) in native cells. When a cell is stimulated, it responds. That response is a redistribution of biomass in the cell. Upon stimulation, proteins, protein complexes, and/or organelles in the cells move. The evanescent wave extends into the cells and exponentially decays over distance, leading to a characteristic sensing depth of ˜150 nm. Any optical response mediated through receptor activation only represents an average over the portion of the cell that the evanescent wave is sampling. The aggregation of many cellular events downstream to the receptor activation leads to a DMR signal having characteristic kinetics and amplitudes.
(§4) All assays were carried out at a controlled temperature (28° C.). At least two independent sets of experiments, each with at least three replicates, were performed.

[4] = system: HCT116-PTEN Null cell line; test: Label-free RWG biosensor DMR assay
Description: as §2, §3, §4

Row | Compound | Akt activation (phospho-Akt) [1] | EGFR activation [2] | Akt activation (phospho-Akt) [2] | Ca^2+ mobilization (fold increase in fluorescence, FLIPR) (HCT116 PTEN null cells) | Ca^2+ mobilization (fold increase in fluorescence, FLIPR) (HCT116 parental cells) | level of phosphorylated STAT3 [1] | level of phosphorylated STAT3 [2] | agonist-induced DMR signal ([3]; untreated, 10 μM agonist (EGF, IGF1 1 μM)) | agonist DMR in PTEN deleted cell line compared to parental cell line (sensitivity to PTEN deletion) ([4]; 10 μM agonist (EGF, IGF1 1 μM)) | agonist-induced DMR signal ([4]; HCT116-PTEN Null, untreated, 10 μM agonist (EGF, IGF1 1 μM)) | potency to trigger DMR, PTEN null vs parental ([4]; dose response, early P-DMR or late P-DMR (50 min poststimulation) amplitudes) | efficacy to trigger DMR, PTEN null vs parental ([4]; dose response, early or late P-DMR event) | receptor / signaling pathway activated (pathway deconvolution of DMR with toxins) ([3]; 10 μM agonist) | receptor / signaling pathway activated (pathway deconvolution of DMR with toxins) ([4]; HCT116-PTEN Null, 10 μM agonist)
1 | CCCCCCCCCCCCC/C=C/[C@@H](O)[C@@H](N)COP(=O)(O)O [S1P, sphingosine-1-phosphate] | did not activate | did not activate | did not activate |  |  |  |  |  |  |  |  |  |  | 
2 | SFLLR-amide | did not activate |  | did not activate | robust Ca^2+ mobilization | robust Ca^2+ mobilization | significantly increased | significantly increased | robust DMR signal | distinct characteristics | robust DMR signal | almost identical | higher efficacy |  | 
3 | Nc1ncnc2c1ncn2[C@@H]1O[C@H](COP(=O)(O)OP(=O)(O)OP(=O)(O)O)[C@@H](O)[C@H]1O [ATP] |  |  |  | robust Ca^2+ mobilization | robust Ca^2+ mobilization |  |  |  | dramatically different |  |  |  | activates multiple GPCRs and mediates signaling via multiple G proteins | activates multiple GPCRs and mediates signaling via multiple G proteins
4 | SLIGKV-NH2 | did not activate |  | did not activate | robust Ca^2+ mobilization | robust Ca^2+ mobilization |  |  |  |  |  |  |  |  | 
